The results in this text go back to US8802235B2, “Drug and imaging agent delivery compositions and methods” (priority 2012, dated 2014).

Data set [1] deals with MCF-7 cells. Description: Cell growth inhibition (resazurin blue), MCF-7. It counts as cell-based, human. The conditions noted are these: 72 hours after drug addition. The method, then: Plates were seeded with 3,000 cells/well in 100 μL of media (12 replicates/sample). Drug or conjugate solutions were applied after 24 hours. […] The in vitro anti-proliferative activities of cisplatin, NO-donating prodrug, and their star polymer-based conjugates, including acid-Pt, acid-NO, and combinational acid-Pt/acid-NO were evaluated in cell culture using a human breast cancer cell line, MCF-7. […] The acid-Pt appeared to be less cytotoxic than cisplatin in the cells. This is likely due to the slow release of the active drug, which was not unexpected for a sustained-delivery platform. One of the obstacles that has not yet been overcome in infusion chemotherapy is the poor tumor penetration and accumulation of small-molecule anti-cancer agents. Usually the majority of the chemotherapeutics have been cleared from systemic circulation, via the kidneys, before a significant concentration of the anti-cancer agent is achieved in the tumorigenic tissues. However, the acid-Pt and acid-NO nanoconjugates may greatly enhance the intratumoral drug concentration compared to the normal tissues due to the Enhanced Permeability and Retention effect (EPR), in which nanoformulations tend to penetrate tumors more effectively via leaky, fenestrated tumor blood vessels. […]
In general terms: Resazurin is reduced to fluorescent resorufin, in cell work by metabolically active cells.

The test system of data set [2] is MDA-1986 cells. Description: Cell growth inhibition (resazurin blue), MDA-1986. The conditions noted are these: 72 hours. It counts as cell-based, human. The method, then: (§1) Cell growth inhibition was determined in 96-well plates (3,000 cells/well in 100 μL, 12 replicates/sample) using highly invasive human breast cancer cells, MDA-MB-231, non-metastatic human breast cancer cells, MDA-MB-468, and highly invasive human head and neck squamous cell cancer cells positive for epithelia growth factor receptor, MDA-1986. Drug or conjugate solutions were applied after 24 hours, and 72 hours post-addition, resazurin blue in 10 μL of PBS was applied to each well (final concentration 5 μM).

Another data set has as its system MDA-MB-468 cells. Briefly: Cell growth inhibition (resazurin blue), MDA-MB-468. It counts as cell-based, human. Particulars: 72 hours. The method, then:
as §1

The next data set deals with MDA-MB-231 cells. Briefly: Cell growth inhibition (resazurin blue), MDA-MB-231. It counts as cell-based, human. The conditions noted are these: 72 hours. The method, then: as §1
For data set [3], the system named is MDA-1986 cells. Description: Nitric oxide release (Griess) in cell culture with MDA-1986 cells. It counts as cell-based, human. The method, then:
The fluorescence intensity was measured between 520 and 550 nm using a fluorescence microplate reader.
The concentration of nitrite, the stable breakdown product of gaseous nitric oxide, was measured using Griess assay as an indirect measurement of nitric oxide concentration in cell culture media. The assay is based on the reaction between sulfanilamide, N-1-napthyethylenediamine dihydrochloride and nitrite, under acidic conditions to produce a […] azo compound.
On the technique in general: Nitrite, measured by Griess reagent, commonly stands in for NO production.

Data set [4] relates to MCF-7 cells.

The IC50 is the point on the concentration scale where inhibition reaches its midpoint. For `O=[N+]([O-])c1ccc(ON=[N+]([O-])N2CCN(CCOCCO)CC2)c([N+](=O)[O-])c1` [NO1, O^2-(2,4-Dinitrophenyl) 1-{[4-(2-(2-hydroxyethoxy))ethyl]piperazin-1-yl}diazen-1-ium-1,2-diolate], the IC50 in the data set with MCF-7 cells [1] amounted to 48 ± 28 µM; in the data set with MDA-1986 cells [2] it was 33 ± 1 µM; in the data set on MDA-MB-468 cells it was 26 ± 4 µM; in the data set on MDA-MB-231 cells, 32 ± 3 µM. The “Release half-life” value in the data set with MDA-1986 cells [3] amounted to 7.1 h; in the data set with MCF-7 cells [4], 7.4 h.
